From publication PMC3419814 (Bioorganic & medicinal chemistry, 2012)

Assay: logP from HPLC retention times
Format: physicochemical

Chromatographic logP, 4.8 to 5.5:
COc1ccc(Cl)cc1Nc1nc(-c2sc(NC(=O)C(C)(C)C)nc2C)c(-n2cc(CO)nn2)s1 [compound 13, N-(2-(5-Chloro-2-methoxyphenylamino)-5-(4-(hydroxyl-methyl)-1H-1,2,3-triazol-1-yl)-4′-methyl-4,5′-bithiazol-2′-yl)pivalamide]
COc1ccc(Cl)cc1Nc1nc(-c2sc(NC(=O)C(C)(C)C)nc2C)c(-n2cc(C(=O)O)nn2)s1 [compound 15, 1-(2-(5-Chloro-2-methoxyphenylamino)-4′-methyl-2′-pivalamido-4,5′-bithiazol-5-yl)-1H-1,2,3-triazole-4-carboxylic acid]
COC(=O)c1cn(-c2sc(Nc3cc(Cl)ccc3OC)nc2-c2sc(NC(=O)C(C)(C)C)nc2C)nn1 [compound 14, Methyl 1-(2-(5-chloro-2-methoxyphenylamino)-4′-methyl-2′-pivalamido-4,5′-bithiazol-5-yl)-1H-1,2,3-triazole-4-carboxylate]
